Measured values: patent publication US6482802B1 (Endowment for Research in Human Biology, Inc., priority 1998, dated 2002)
“And” between values parts separate entries of the source, which are not always exact repeats. Equal entries are not always repeated.

Tests used:
[1] = test system: chorioallantoic membrane (CAM) of chick embryos; assay: CAM assay, bFGF-induced angiogenesis; format: in vivo; conditions: for % Positive: bFGF alone 78, water 21
Protocol: (§1) Angiogenesis was measured on the CAM by the method of Knighton et al. (Knighton et al., 1977, Br. J. Cancer 35:347-356) essentially as described (Fett et al., 1985, Biochemistry 24:5480-5486). Fertilized chicken eggs were kept at 18° C. for 2 days and then incubated in a humidified environment at 37° C. for 3 days. Albumin was aspirated from the embryos and after 24 hours, a “window” was cut through the shell and covered with clear tape. […] After 48-68 hours at 37° C., the growth of blood vessels was observed microscopically and recorded as either positive or negative. A positive response (i.e., an angiogenic response) has a typical “spokewheel” appearance.

HUVE cells [2] = assay: Angiogenin-induced proliferation of HUVE cells; format: cell-based, human
Protocol: HUVE cells were seeded at 4×10^3 cells/cm^2 in attachment factor (Cell Systems Corp.)-coated 35 mm dishes in HE-SFM, and incubated with 1 μg/ml angiogenin in the presence or absence of inhibitors at 37° C. for 48 hr. Cell were detached by trypsinization and cell numbers were determined with a Coulter counter.

[3] = test system: chorioallantoic membrane (CAM) of chick embryos; assay: CAM assay, angiogenin-induced angiogenesis; format: in vivo; conditions: for % Positive (angiogenic response): angiogenin alone 55, water 20
Protocol: as §1

[4] = test system: chorioallantoic membrane (CAM) of chick embryos; assay: CAM assay, neomycin alone without angiogenic factor; format: in vivo
Protocol: as §1

Human angiogenin = biological target: T1, Human angiogenin (Homo sapiens, UniProt P03950); assay: Ribonucleolytic activity of angiogenin, yeast tRNA substrate; format: biochemical
T1 construct: made in house; host or cells: Escherichia coli
T1 sequence (P03950 with tags, fused parts or gaps): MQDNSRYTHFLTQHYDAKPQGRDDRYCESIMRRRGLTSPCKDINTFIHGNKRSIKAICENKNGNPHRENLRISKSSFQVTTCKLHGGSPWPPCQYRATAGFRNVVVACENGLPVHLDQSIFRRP
Protocol: After incubation for 2 hr at 37° C., […] of 3.4% ice-cold perchloric acid was added, the mixture was vortexed, kept on ice for […] and centrifuged at 15,000×g for 10 min at 4° C. The absorbance of the supernatants was measured at 260 nm.

[5] = test system: nuclear translocation of bFGF in HUVE cells; assay: Nuclear translocation of 125I-bFGF in HUVE cells; format: cell-based, human; conditions: for bFGF Counts (nuclear fraction): 125I-bFGF 50 ng/ml, 0 μM: 18300 ± 200
Protocol: Inhibition of nuclear translocation of angiogenic factors in HUVE cells was performed in the following manner. […] The cell pellet was washed once with PBS and lysed with 0.5% triton X-100 in PBS. […] Radioactivity in the nuclear fraction was determined with a gamma counter.

HUVE cells [6] = assay: EGF-induced proliferation of HUVE cells; format: cell-based, human; conditions: for EGF Cell No.: EGF 5 ng/ml, 48 hrs, 0 μM 5300 ± 300
Protocol: The cells were incubated at 37° C. under humidified air containing 5% CO2 for 48 hrs. […] Cell numbers were determined with a Coulter counter.

Substance: neomycin
- % Inhibition of angiogenic activity ([1]; bFGF 10 ng + neomycin 20 ng): 58%
- Positive eggs ([1]; bFGF 10 ng + neomycin 20 ng, 33 total eggs): 15
- % Positive ([1]; bFGF 10 ng + neomycin 20 ng): 45%
- % Inhibition of angiogenic activity ([1]; bFGF 10 ng + neomycin 200 ng): 81%
- Positive eggs ([1]; bFGF 10 ng + neomycin 200 ng, 38 total eggs): 12
- % Positive ([1]; bFGF 10 ng + neomycin 200 ng): 34% and 32%
- dosage that inhibited bFGF-induced angiogenesis ([1]; in vivo): about 200 ng per embryo
- IC50 (HUVE cells [2]; HUVE cells, angiogenin 1 μg/ml, 48 hr, read-out: IC50, angiogenin-induced EC proliferation): ~10 µM and < 10 µM
- Cell number (HUVE cells [2]; aminoglycoside 100 μM, with angiogenin 1 μg/ml, none: 62,500 ± 100): 53,400 ± 1,900
- Cell number (HUVE cells [2]; aminoglycoside 100 μM, without angiogenin, none: 52,000 ± 100): 52,700 ± 700
- percent of cell number in the presence of 1 μg/ml angiogenin relative to the corresponding control (HUVE cells [2]; aminoglycoside 100 μM, none: 120): 101%
- inhibition of proliferative activity of angiogenin (HUVE cells [2]; neomycin 5 μM, angiogenin 1 μg/ml, 48 hr): 49%
- inhibition of angiogenin-induced cell proliferation (HUVE cells [2]; neomycin 25 μM, angiogenin 1 μg/ml, 48 hr): 69%
- angiogenin-induced cell proliferation (HUVE cells [2]; neomycin 50 μM, angiogenin 1 μg/ml, 48 hr): completely abolished
- effect of neomycin alone on cell proliferation (HUVE cells [2]; no angiogenin, 48 hr): neither induced nor inhibited cell proliferation
- dose that abolishes the angiogenic activity of angiogenin ([3]; angiogenin 10 ng): 20 ng per egg
- % Positive (angiogenic response) ([3]; angiogenin 10 ng + neomycin 4 ng): 40%
- % Positive (angiogenic response) ([3]; angiogenin 10 ng + neomycin 20 ng): 20%
- % Positive (angiogenic response) ([3]; angiogenin 10 ng + neomycin 200 ng): 25%
- induction of angiogenesis by neomycin itself ([4]; about 5 to about 50 μM (20 to 200 ng in 5 μl)): does not induce angiogenesis
- Positive eggs ([4]; neomycin 20 ng alone, 50 total eggs): 10
- % Positive ([4]; neomycin 20 ng alone, water 20-21): 20%
- Positive eggs ([4]; neomycin 200 ng alone, 29 total eggs): 6
- % Positive ([4]; neomycin 200 ng alone, water 20-21): 21%
- Positive eggs ([4]; neomycin 1000 ng alone, 13 total eggs): 3
- % Positive ([4]; neomycin 1000 ng alone, water 21): 23%
- ribonucleolytic activity of angiogenin, % of control (Human angiogenin; neomycin 5 μM): 87%
- ribonucleolytic activity of angiogenin, % of control (Human angiogenin; neomycin 10 μM): 105%
- ribonucleolytic activity of angiogenin, % of control (Human angiogenin; neomycin 50 μM): 88%
- bFGF % Inhib. of nuclear translocation ([5]; neomycin 10 μM): 13%
- bFGF Counts (nuclear fraction) ([5]; neomycin 10 μM): 15900 ± 100 cpm
- bFGF % Inhib. of nuclear translocation ([5]; neomycin 50 μM): 22%
- bFGF Counts (nuclear fraction) ([5]; neomycin 50 μM): 14300 ± 100 cpm
- bFGF % Inhib. of nuclear translocation ([5]; neomycin 100 μM): 26%
- bFGF Counts (nuclear fraction) ([5]; neomycin 100 μM): 13500 ± 300 cpm
- bFGF % Inhib. of nuclear translocation ([5]; neomycin 150 μM): 32%
- bFGF Counts (nuclear fraction) ([5]; neomycin 150 μM): 12400 ± 200 cpm
- bFGF % Inhib. of nuclear translocation ([5]; neomycin 200 μM): 40%
- bFGF Counts (nuclear fraction) ([5]; neomycin 200 μM): 10900 ± 100 cpm
- EGF Inhib. % of cell proliferation (HUVE cells [6]; neomycin 25 μM): 17%
- EGF Cell No. (HUVE cells [6]; neomycin 25 μM): 46700 ± 600
- EGF Inhib. % of cell proliferation (HUVE cells [6]; neomycin 50 μM): 35%
- EGF Cell No. (HUVE cells [6]; neomycin 50 μM): 41700 ± 600
- EGF Inhib. % of cell proliferation (HUVE cells [6]; neomycin 100 μM): 59%
- EGF Cell No. (HUVE cells [6]; neomycin 100 μM): 35700 ± 1100
- EGF Inhib. % of cell proliferation (HUVE cells [6]; neomycin 150 μM): 71%
- EGF Cell No. (HUVE cells [6]; neomycin 150 μM): 32800 ± 200
- EGF Inhib. % of cell proliferation (HUVE cells [6]; neomycin 200 μM): 100%
- EGF Cell No. (HUVE cells [6]; neomycin 200 μM): 26000 ± 900
- IC50 (HUVE cells [6]; read-out: IC50, EGF-induced proliferation of endothelial cells): ~100 µM
